Among the data in ChEMBL document CHEMBL5523766 (J Med Chem, 2024) are IC50, viability and Activity values, retold here.

The target of one experiment is ATR/ATRIP (Homo sapiens, UniProt Q13535). Briefly: Inhibition of ATR/ATRIP (unknown origin) using 5-FAM-AK-17 as substrate preincubated with compound for 10 mins followed by ATP addition and measured after 240 mins by mobility shift assay. Type of experiment: protein-complex assay.
For experiment [1], the system named is Granta-519. Briefly: Induction of apoptosis in human Granta-519 cells assessed as viable cells at 2000 nM incubated for 48 hrs by Annexin-V-FITC/propidium iodide staining based flow cytometry (reference value: 92.7 %). The conditions noted are these: read-out: Activity. Type of experiment: functional.
In experiment [2] the test system is Granta-519. Briefly: Antiproliferative activity against human Granta-519 cells assessed as inhibition of cell growth incubated for 72 hrs by MTS assay. Type of experiment: functional, cell-based. Particulars: Granta-519, 72 h. A general note: Tetrazolium dyes change colour on reduction, which living cells bring about.
Another experiment deals with A2780. Briefly: Antiproliferative activity against human A2780 cells assessed as inhibition of cell growth incubated for 72 hrs by MTS assay. Type of experiment: functional, cell-based. The conditions noted are these: A2780, 72 h.
A further experiment has as its system OCI-Ly10. Briefly: Antiproliferative activity against human OCI-Ly10 cells assessed as inhibition of cell growth incubated for 72 hrs by MTS assay. Type of experiment: functional, cell-based. Particulars: OCI-Ly10, 72 h.
The subject of another experiment is LoVo. Briefly: Antiproliferative activity against human LoVo cells assessed as inhibition of cell growth incubated for 72 hrs by MTS assay. Type of experiment: functional, cell-based.
In a further experiment the test system is HCT-116. Briefly: Antiproliferative activity against human HCT-116 cells assessed as inhibition of cell growth incubated for 72 hrs by MTS assay. In kind it is functional, cell-based. The conditions noted are these: HCT-116, 72 h.
Another experiment relates to NCI-H446. Briefly: Antiproliferative activity against human NCI-H446 cells assessed as inhibition of cell growth incubated for 72 hrs by MTS assay. In kind it is functional, cell-based. Particulars: NCI-H446, 72 h.
The test system of a further experiment is HT-29. Briefly: Antiproliferative activity against human HT-29 cells assessed as inhibition of cell growth incubated for 72 hrs by MTS assay. Type of experiment: functional, cell-based. Particulars: HT-29, 72 h.
In a further experiment the test system is SUD4. Briefly: Antiproliferative activity against human SU-DHL-4 cells assessed as inhibition of cell growth incubated for 72 hrs by MTS assay. Particulars: SU-DHL-4, 72 h. In kind it is functional, cell-based.
The subject of another experiment is DLD-1. Briefly: Antiproliferative activity against human DLD-1 cells assessed as inhibition of cell growth incubated for 72 hrs by MTS assay. Type of experiment: functional, cell-based. The conditions noted are these: DLD-1, 72 h.
The next experiment relates to CAPAN-1. Briefly: Antiproliferative activity against human CAPAN-1 cells assessed as inhibition of cell growth incubated for 72 hrs by MTS assay. Particulars: CAPAN-1, 72 h. In kind it is functional, cell-based.
In another experiment the test system is PC-3. Briefly: Antiproliferative activity against human PC-3 cells assessed as inhibition of cell growth incubated for 72 hrs by MTS assay. In kind it is functional, cell-based. The conditions noted are these: PC-3, 72 h.
Experiment [3] concerns Granta-519. Briefly: Induction of cell cycle arrest in human Granta-519 cells assessed as accumulation of cells at G1 phase at 2000 nM incubated for 24 hrs by propidium iodide staining based flow cytometry (reference value: 45.83 %). Type of experiment: functional. In general terms: In flow cytometry, cells or beads pass a laser one at a time.
For experiment [4], the system named is Granta-519. Briefly: Induction of cell cycle arrest in human Granta-519 cells assessed as accumulation of cells at S phase at 2000 nM incubated for 24 hrs by propidium iodide staining based flow cytometry (reference value: 44.81 %). Type of experiment: functional.
The test system of experiment [5] is Granta-519. Briefly: Induction of apoptosis in human Granta-519 cells assessed as early apoptotic cells at 2000 nM incubated for 48 hrs by Annexin-V-FITC/propidium iodide staining based flow cytometry (reference value: 3.75 %). Type of experiment: functional.
Experiment [6] deals with Granta-519. Briefly: Induction of apoptosis in human Granta-519 cells assessed as late apoptotic cells at 2000 nM incubated for 48 hrs by Annexin-V-FITC/propidium iodide staining based flow cytometry (reference value: 3.07 %). In kind it is functional.
Experiment [7] has as its system Granta-519. Briefly: Induction of apoptosis in human Granta-519 cells assessed as necrotic cells at 2000 nM incubated for 48 hrs by Annexin-V-FITC/propidium iodide staining based flow cytometry (reference value: 0.429 %). In kind it is functional.

Chain of ATR/ATRIP (Q13535 whole entry): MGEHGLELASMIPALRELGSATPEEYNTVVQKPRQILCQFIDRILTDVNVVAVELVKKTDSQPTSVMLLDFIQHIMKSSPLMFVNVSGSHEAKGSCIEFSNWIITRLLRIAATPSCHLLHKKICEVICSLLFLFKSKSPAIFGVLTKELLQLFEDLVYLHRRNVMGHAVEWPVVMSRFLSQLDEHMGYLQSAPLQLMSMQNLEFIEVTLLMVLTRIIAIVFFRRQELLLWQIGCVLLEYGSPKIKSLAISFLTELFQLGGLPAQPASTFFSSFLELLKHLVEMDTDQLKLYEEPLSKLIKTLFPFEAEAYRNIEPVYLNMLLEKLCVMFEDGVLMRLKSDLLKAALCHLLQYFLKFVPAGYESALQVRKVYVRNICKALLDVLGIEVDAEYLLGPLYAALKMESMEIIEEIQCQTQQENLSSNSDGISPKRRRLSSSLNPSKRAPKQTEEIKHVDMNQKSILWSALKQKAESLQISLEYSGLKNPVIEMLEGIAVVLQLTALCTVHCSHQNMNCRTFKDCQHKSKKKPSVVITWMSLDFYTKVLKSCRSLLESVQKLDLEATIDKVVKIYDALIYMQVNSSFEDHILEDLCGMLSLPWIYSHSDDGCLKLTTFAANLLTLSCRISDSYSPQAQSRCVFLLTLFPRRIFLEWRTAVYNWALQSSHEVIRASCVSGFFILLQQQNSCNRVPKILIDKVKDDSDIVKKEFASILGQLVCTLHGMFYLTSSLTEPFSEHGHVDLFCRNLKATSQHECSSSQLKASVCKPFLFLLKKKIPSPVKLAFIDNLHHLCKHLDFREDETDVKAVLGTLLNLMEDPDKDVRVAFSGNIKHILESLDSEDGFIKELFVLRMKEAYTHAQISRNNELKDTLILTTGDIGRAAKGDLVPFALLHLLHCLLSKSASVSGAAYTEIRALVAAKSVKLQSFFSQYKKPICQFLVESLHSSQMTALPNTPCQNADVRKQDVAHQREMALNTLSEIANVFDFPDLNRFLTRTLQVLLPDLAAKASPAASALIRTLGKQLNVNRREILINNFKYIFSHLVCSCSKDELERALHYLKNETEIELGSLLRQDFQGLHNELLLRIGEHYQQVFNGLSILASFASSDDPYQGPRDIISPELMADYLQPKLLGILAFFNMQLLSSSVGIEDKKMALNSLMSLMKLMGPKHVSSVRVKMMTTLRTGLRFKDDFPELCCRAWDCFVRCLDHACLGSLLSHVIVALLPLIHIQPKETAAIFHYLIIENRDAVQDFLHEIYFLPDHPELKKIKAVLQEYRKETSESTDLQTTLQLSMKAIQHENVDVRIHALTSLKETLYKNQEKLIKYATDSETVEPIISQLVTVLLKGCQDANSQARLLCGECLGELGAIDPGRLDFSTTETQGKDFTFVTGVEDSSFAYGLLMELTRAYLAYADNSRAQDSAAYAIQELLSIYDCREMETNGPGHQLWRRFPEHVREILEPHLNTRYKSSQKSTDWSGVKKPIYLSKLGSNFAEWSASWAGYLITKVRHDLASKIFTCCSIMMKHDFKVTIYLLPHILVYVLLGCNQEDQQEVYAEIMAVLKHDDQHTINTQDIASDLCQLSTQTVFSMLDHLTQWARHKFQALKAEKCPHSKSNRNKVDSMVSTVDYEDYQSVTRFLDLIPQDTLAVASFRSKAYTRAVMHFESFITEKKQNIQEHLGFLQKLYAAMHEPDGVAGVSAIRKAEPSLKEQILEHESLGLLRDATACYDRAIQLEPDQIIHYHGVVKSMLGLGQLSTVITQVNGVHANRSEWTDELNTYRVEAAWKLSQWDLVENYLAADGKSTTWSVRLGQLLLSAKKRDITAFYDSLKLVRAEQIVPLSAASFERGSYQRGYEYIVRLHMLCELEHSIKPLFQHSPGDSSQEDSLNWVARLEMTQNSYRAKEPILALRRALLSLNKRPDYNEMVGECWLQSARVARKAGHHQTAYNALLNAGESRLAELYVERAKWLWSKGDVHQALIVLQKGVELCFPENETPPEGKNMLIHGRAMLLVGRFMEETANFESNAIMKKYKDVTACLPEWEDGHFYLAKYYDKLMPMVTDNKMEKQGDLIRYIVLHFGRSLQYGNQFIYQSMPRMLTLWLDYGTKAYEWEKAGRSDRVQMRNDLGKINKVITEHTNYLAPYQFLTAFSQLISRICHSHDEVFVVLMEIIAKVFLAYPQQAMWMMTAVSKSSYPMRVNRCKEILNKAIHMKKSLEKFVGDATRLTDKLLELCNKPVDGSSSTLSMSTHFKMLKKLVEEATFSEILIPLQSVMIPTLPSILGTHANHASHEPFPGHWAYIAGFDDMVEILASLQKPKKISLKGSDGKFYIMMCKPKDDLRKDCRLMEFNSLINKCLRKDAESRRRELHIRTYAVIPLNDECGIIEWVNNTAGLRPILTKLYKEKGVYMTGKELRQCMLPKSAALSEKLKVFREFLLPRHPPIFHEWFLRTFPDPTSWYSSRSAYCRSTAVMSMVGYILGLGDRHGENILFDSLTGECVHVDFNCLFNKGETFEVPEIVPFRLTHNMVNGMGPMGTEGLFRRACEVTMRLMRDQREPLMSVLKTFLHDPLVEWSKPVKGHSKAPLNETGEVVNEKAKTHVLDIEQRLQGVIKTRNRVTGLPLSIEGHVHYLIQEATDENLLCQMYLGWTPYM
Chain of ATR/ATRIP (Q8WXE1 whole entry, further chain): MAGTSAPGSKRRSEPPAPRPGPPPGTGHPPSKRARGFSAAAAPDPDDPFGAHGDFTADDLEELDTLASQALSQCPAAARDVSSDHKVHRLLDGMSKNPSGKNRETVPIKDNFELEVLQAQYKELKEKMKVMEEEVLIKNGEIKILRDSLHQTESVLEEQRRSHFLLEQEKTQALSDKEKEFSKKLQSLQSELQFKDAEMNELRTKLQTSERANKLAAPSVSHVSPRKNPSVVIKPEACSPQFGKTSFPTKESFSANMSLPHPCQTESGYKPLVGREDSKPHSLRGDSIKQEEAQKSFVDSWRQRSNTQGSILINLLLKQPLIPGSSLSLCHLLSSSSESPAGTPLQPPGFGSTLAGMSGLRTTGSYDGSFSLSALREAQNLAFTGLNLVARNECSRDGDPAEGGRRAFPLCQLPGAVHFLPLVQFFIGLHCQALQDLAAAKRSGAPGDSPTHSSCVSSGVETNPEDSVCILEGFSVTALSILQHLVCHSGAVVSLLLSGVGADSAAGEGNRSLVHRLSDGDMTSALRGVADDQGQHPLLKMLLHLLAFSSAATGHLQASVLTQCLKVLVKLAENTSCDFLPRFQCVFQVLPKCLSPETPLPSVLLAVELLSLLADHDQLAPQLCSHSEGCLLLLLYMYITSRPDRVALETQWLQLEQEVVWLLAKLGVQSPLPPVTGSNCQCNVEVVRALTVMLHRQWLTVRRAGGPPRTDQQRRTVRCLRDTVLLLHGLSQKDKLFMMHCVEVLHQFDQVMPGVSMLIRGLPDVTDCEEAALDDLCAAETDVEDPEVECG

Turning to `C[C@@H]1COCCN1c1nc(-c2cccc3[nH]ccc23)nc2c1ccn2S(=O)(=O)C1CCCCC1`, the IC50 on ATR/ATRIP is 0.205 µM.

With `C[C@@H]1COCCN1c1cc(N2CCCS2(=O)=O)nc(-c2cccc3[nH]ccc23)n1`, on ATR/ATRIP, the IC50 turned out to be 0.0435 µM.

Regarding `C[C@@H]1COCCN1c1nc(-c2ccnc3cccnc23)nc2c1ccn2S(C)(=O)=O`, the IC50 on ATR/ATRIP was 3.69 µM.

For `CCS(=O)(=O)n1ccc2c(N3CCOC[C@H]3C)nc(-c3cccc4[nH]ccc34)nc21`, the 50% inhibitory concentration (IC50) on ATR/ATRIP was 0.0043 µM.

On to `Cc1ccc(S(=O)(=O)n2ccc3c(N4CCOC[C@H]4C)nc(-c4cccc5[nH]ccc45)nc32)cc1`, for which the IC50 on ATR/ATRIP was 3.67 µM.

`C[C@@H]1COCCN1c1cc(C2(S(=O)(=O)N(C)C)CC2)nc(-c2cccc3[nH]ccc23)n1`: the IC50 on ATR/ATRIP came to 0.746 µM.

In the case of `C[C@@H]1COCCN1c1nc(-c2cc(Cl)cc3[nH]ccc23)nc2c1ccn2S(C)(=O)=O`, the IC50 on ATR/ATRIP turned out to be 0.0044 µM.

For the compound `C[C@@H]1COCCN1c1cc(C2(S(C)(=O)=O)CC2)nc(-c2cccc3[nH]ccc23)n1`, in the experiment on Granta-519 [1], the viability at 2 µM was 80.6%. The IC50 with Granta-519 [2] was found to be 0.5 µM; in the experiment with A2780, 0.46 µM; with OCI-Ly10, 1.03 µM; in the experiment with LoVo, 0.85 µM; in the experiment on HCT-116, 1.47 µM; with NCI-H446, 3.9 µM. In addition, the IC50 was 2.94 µM in the experiment on HT-29; 2.38 µM in the experiment on SUD4; 3.47 µM in the experiment with DLD-1; 7.05 µM in the experiment on CAPAN-1; 8.43 µM with PC-3. For the same compound, the Activity in the experiment with Granta-519 [3] was found to be 35.65%; in the experiment with Granta-519 [4] it was 61.62%; with Granta-519 [5] it was 9.18%; in the experiment on Granta-519 [6], 9.46%; in the experiment on Granta-519 [7], 0.742%.

For the compound `C[C@@H]1COCCN1c1nc(-c2cccc3[nH]ccc23)nc2c1ccn2S(=O)(=O)C1CC1`, the IC50 on ATR/ATRIP was determined as 0.0038 µM.

For `C[C@@H]1COCCN1c1cc(C2CCCS2(=O)=O)nc(-c2cccc3[nH]ccc23)n1` (stereo partly drawn), the IC50 at ATR/ATRIP came to 0.0094 µM.

For `COc1cc(-c2nc(N3CCOC[C@H]3C)c3ccn(S(C)(=O)=O)c3n2)c2cc[nH]c2c1`, the IC50 on ATR/ATRIP stood at 0.0053 µM.

Regarding `C[C@@H]1COCCN1c1nc(-c2ccc3[nH]cnc3c2)nc2c1ccn2S(C)(=O)=O`, at ATR/ATRIP, the IC50 worked out at 0.245 µM.

With `C[C@@H]1COCCN1c1nc(-c2cccc3[nH]ccc23)nc2c1cnn2S(C)(=O)=O`, on ATR/ATRIP, the concentration for half-maximal inhibition (IC50) was determined as 0.0058 µM.

As for `C[C@@H]1COCCN1c1nc(-c2cccc3[nH]ccc23)nc2c1CS(=O)(=O)C2`, the concentration for half-maximal inhibition (IC50) at ATR/ATRIP was found to be 0.0321 µM.

On to `C[C@@H]1COCCN1c1nc(-c2cccc3sccc23)nc2c1ccn2S(C)(=O)=O`, for which the IC50 at ATR/ATRIP was determined as 0.028 µM.

Consider `C[C@@H]1COCCN1c1cc(C2CCCCS2(=O)=O)nc(-c2cccc3[nH]ccc23)n1` (stereo partly drawn), for which the IC50 on ATR/ATRIP is 0.0078 µM.

Take `C[C@@H]1COCCN1c1nc(-c2cccc3[nH]ccc23)nc2c1ccn2S(=O)(=O)c1cccs1`: the half-inhibitory concentration (IC50) on ATR/ATRIP amounted to 0.0849 µM.

Take `C[C@@H]1COCCN1c1nc(-c2cccc3[nH]ccc23)nc2c1ccn2S(=O)(=O)c1ccc(-c2ccccc2)cc1`: at ATR/ATRIP, the IC50 stood at 10.2 µM.

As to `C[C@@H]1COCCN1c1nc(-c2cccc3[nH]ccc23)nc2c1ccn2S(C)(=O)=O`, at ATR/ATRIP, the 50% inhibitory concentration (IC50) was 0.0023 µM.

Take `CC(C)S(=O)(=O)n1ccc2c(N3CCOC[C@H]3C)nc(-c3cccc4[nH]ccc34)nc21`: the IC50 on ATR/ATRIP was 0.008 µM.

Take `C[C@@H]1COCCN1c1nc(-c2cncc3ccccc23)nc2c1ccn2S(C)(=O)=O`: the half-maximal inhibitory concentration (IC50) on ATR/ATRIP was determined as 0.0469 µM.

Consider `C[C@@H]1COCCN1c1nc(-c2cccc3[nH]ccc23)nc2c1ccn2S(=O)(=O)N(C)C`, for which, at ATR/ATRIP, the IC50 came to 0.0053 µM.

Turning to `C[C@@H]1COCCN1c1nc(-c2cnc3ccccc3c2)nc2c1ccn2S(C)(=O)=O`, at ATR/ATRIP, the 50% inhibitory concentration (IC50) came to 0.63 µM.

`CC(C)N(c1cc(N2CCOC[C@H]2C)nc(-c2cccc3[nH]ccc23)n1)S(C)(=O)=O`: at ATR/ATRIP, the IC50 came out at 0.0078 µM.

On to `C[C@@H]1COCCN1c1nc(-c2cccc3occc23)nc2c1ccn2S(C)(=O)=O`, for which the IC50 on ATR/ATRIP amounted to 0.684 µM.

As to `C[C@@H]1COCCN1c1nc(-c2cccc3ccccc23)nc2c1ccn2S(C)(=O)=O`, the IC50 on ATR/ATRIP was found to be 0.0395 µM.

For the compound `C[C@@H]1COCCN1c1nc(-c2cc(C(F)(F)F)cc3[nH]ccc23)nc2c1ccn2S(C)(=O)=O`, at ATR/ATRIP, the IC50 amounted to 0.0092 µM.

For the compound `C[C@@H]1COCCN1c1nc(-c2cccc3[nH]ccc23)nc2c1ccn2S(=O)(=O)c1ccccc1`, the IC50 on ATR/ATRIP was found to be 0.27 µM.

As to `C[C@@H]1COCCN1c1cc(N(C2CC2)S(C)(=O)=O)nc(-c2cccc3[nH]ccc23)n1`, the IC50 on ATR/ATRIP turned out to be 0.0033 µM.

Regarding `C[C@@H]1COCCN1c1nc(-c2cc(C#N)cc3[nH]ccc23)nc2c1ccn2S(C)(=O)=O`, the 50% inhibitory concentration (IC50) at ATR/ATRIP turned out to be 0.0094 µM.

Take `C[C@@H]1COCCN1c1nc(-c2ccc3nccn3c2)nc2c1ccn2S(C)(=O)=O`: on ATR/ATRIP, the IC50 is 0.625 µM.

With `C[C@@H]1COCCN1c1nc(-c2ccc3[nH]ccc3c2)nc2c1ccn2S(C)(=O)=O`, the IC50 on ATR/ATRIP is 0.0531 µM.

Usually IC50 stands for the midpoint of a concentration-inhibition curve.
